According to patent publication US20080107619A1, “Carbohydrate based cellulase inhibitors as feeding stimulants in termites” (University of Florida Research Foundation, Inc., priority 2006, published 2008):
“Also recorded” adds a separate entry of the source.

Tested on: R. flavipes worker termites
Experiment: No-choice Petri dish in vivo feeding bioassay (feeding and mortality, 24 days)
Conditions: for Normalized Avg. Totals: relative to control [0] average; for maximum mortality: after 24 days
Experimental: R. flavipes colonies were collected from the University of Florida campus during spring and summer 2006. Colonies were maintained in sealed plastic boxes (30×24×10 cm) at 22±1° C. and 69±1% RH. Colonies were maintained without soil and provisioned with moist brown paper towels and wood shims. Colonies that were acclimated under the above conditions for <2 months are referred to as “field colonies”, while those held for >6 months are referred to as “lab colonies”. Unless otherwise stated, all studies reported here were run with lab colonies.
Two different termite colonies were used. A lab colony was used in bioassays that tested the effects of CBI and FMG; this was the same colony used in cellulase optimization studies, cellulase distribution studies, and for […] determination. The other colony was a field colony, which was used to repeat the FMG assay along side FMCB. The no-choice feeding bioassay was derived from a previously-developed and slightly modified caste differentiation assay reported by M. E. Scharf, et al. in “Caste differentiation responses of two sympatric Reticulitermes termite species to juvenile hormone homologs and synthetic juvenoids in two laboratory assays.” Insectes Soc. […] Acad. Sci. USA, 103 (2006) 4499-504.
Prior to treatment, paper disks 30 were weighed. Treatments and controls were held in complete darkness at approximately 26±1° C. and 69±1% RH. The inhibitor concentrations tested were 75, 50, 25, 10, 5, 1, 0.5, and 0.1 mM (approximately […] wt/wt). For each inhibitor, paper disks were treated with 50 μl of a given concentration. Control disks received 50 μl methanol alone. Treated papers were allowed to dry in a fume hood for 30 min before placing in dishes, wetting with 25 μl water, and adding 15 termites.
Termite feeding on the filter papers was readily observable and quantifiable from the bioassays. Average feeding through the entire bioassay was summed within each replicate and calculated as a percentage of feeding relative to untreated controls, then averaged across replicates.
The experimental design consisted of three replicate dishes per concentration. All assays were carried out for a total of 24 days. Termite mortality and filter paper moisture were monitored every 4th day. Every 8th day, old paper disks were replaced with new ones. These new filter paper disks were treated with identical inhibitor concentrations. The removed filter paper disks 30, showing the results of termite feeding (FIG. 6), were dried and re-weighed. At the end of each assay, data were summarized as cumulative feeding per live termite and cumulative termite mortality. Data were analyzed by non-parametric t-tests (p<0.05) with commercially-available software for use in statistical analysis, designed by SAS Institute, Cary, N.C.
FIGS. 7A-7F provide graphic data on in vivo feeding bioassays conducted with the carbohydrate-based cellulase inhibitors to assess the impact on termite feeding and survivorship. Feeding results are expressed as the cumulative percent of untreated controls through 24 days. Mortality results are expressed as percent mortality after 24 days. […] Error bars represent standard error of the mean.

[1] = 0.1 mM test conc., 1st ROUND (lab colony)
[2] = 0.1 mM test conc., 2nd ROUND (field colony)
[3] = 0.5 mM test conc., 1st ROUND (lab colony)
[4] = 0.5 mM test conc., 2nd ROUND (field colony)
[5] = 1 mM test conc., 1st ROUND (lab colony)
[6] = 1 mM test conc., 2nd ROUND (field colony)
[7] = 5 mM test conc., 1st ROUND (lab colony)
[8] = 5 mM test conc., 2nd ROUND (field colony)
[9] = 10 mM test conc., 1st ROUND (lab colony)
[10] = 10 mM test conc., 2nd ROUND (field colony)
[11] = 25 mM test conc., 1st ROUND (lab colony)
[12] = 25 mM test conc., 2nd ROUND (field colony)
[13] = 50 mM test conc., 1st ROUND (lab colony)
[14] = 50 mM test conc., 2nd ROUND (field colony)
[15] = 75 mM test conc., 1st ROUND (lab colony)
[16] = 75 mM test conc., 2nd ROUND (field colony)

## fluoromethyl glucose [FMG]
[1]
  Average Feeding in mg per Live Termite (std. err.) days 1-8: 0.52 (0.03) mg per Live Termite
  Average Feeding in mg per Live Termite (std. err.) days 9-16: 0.48 (0.10) mg per Live Termite
  Average Feeding in mg per Live Termite (std. err.) days 17-24: 0.45 (0.04) mg per Live Termite
  Normalized Avg. Totals: 0.98
[2]
  Average Feeding in mg per Live Termite (std. err.) days 1-8: 0.20 (0.04) mg per Live Termite
  Average Feeding in mg per Live Termite (std. err.) days 9-16: 0.33 (0.05) mg per Live Termite
  Average Feeding in mg per Live Termite (std. err.) days 17-24: 0.48 (0.07) mg per Live Termite
  Normalized Avg. Totals: 0.92
[3]
  Average Feeding in mg per Live Termite (std. err.) days 1-8: 0.57 (0.08) mg per Live Termite
  Average Feeding in mg per Live Termite (std. err.) days 9-16: 0.54 (0.07) mg per Live Termite
  Average Feeding in mg per Live Termite (std. err.) days 17-24: 0.44 (0.07) mg per Live Termite
  Normalized Avg. Totals: 0.96
[4]
  Average Feeding in mg per Live Termite (std. err.) days 1-8: 0.34 (0.01) mg per Live Termite
  Average Feeding in mg per Live Termite (std. err.) days 9-16: 0.34 (0.03) mg per Live Termite
  Average Feeding in mg per Live Termite (std. err.) days 17-24: 0.47 (0.03) mg per Live Termite
  Normalized Avg. Totals: 1.03
[5]
  Average Feeding in mg per Live Termite (std. err.) days 1-8: 0.55 (0.02) mg per Live Termite
  Average Feeding in mg per Live Termite (std. err.) days 9-16: 0.58 (0.03) mg per Live Termite
  Average Feeding in mg per Live Termite (std. err.) days 17-24: 0.51 (0.03) mg per Live Termite
  Normalized Avg. Totals: 0.92
[6]
  Average Feeding in mg per Live Termite (std. err.) days 1-8: 0.36 (0.04) mg per Live Termite
  Average Feeding in mg per Live Termite (std. err.) days 9-16: 0.38 (0.01) mg per Live Termite
  Average Feeding in mg per Live Termite (std. err.) days 17-24: 0.39 (0.06) mg per Live Termite
  Normalized Avg. Totals: 1.04
[7]
  Average Feeding in mg per Live Termite (std. err.) days 1-8: 0.39 (0.06) mg per Live Termite
  Average Feeding in mg per Live Termite (std. err.) days 9-16: 0.58 (0.07) mg per Live Termite
  Average Feeding in mg per Live Termite (std. err.) days 17-24: 0.39 (0.07) mg per Live Termite
  Normalized Avg. Totals: 0.72
[8]
  Average Feeding in mg per Live Termite (std. err.) days 1-8: 0.29 (0.02) mg per Live Termite
  Average Feeding in mg per Live Termite (std. err.) days 9-16: 0.29 (0.03) mg per Live Termite
  Average Feeding in mg per Live Termite (std. err.) days 17-24: 0.43 (0.05) mg per Live Termite
  Normalized Avg. Totals: 0.92
[9]
  Average Feeding in mg per Live Termite (std. err.) days 1-8: 0.32 (0.07) mg per Live Termite
  Average Feeding in mg per Live Termite (std. err.) days 9-16: 0.38 (0.09) mg per Live Termite
  Average Feeding in mg per Live Termite (std. err.) days 17-24: 0.41 (0.05) mg per Live Termite
  Normalized Avg. Totals: 0.93
[10]
  Average Feeding in mg per Live Termite (std. err.) days 1-8: 0.17 (0.02) mg per Live Termite
  Average Feeding in mg per Live Termite (std. err.) days 9-16: 0.25 (0.02) mg per Live Termite
  Average Feeding in mg per Live Termite (std. err.) days 17-24: 0.45 (0.04) mg per Live Termite
  Normalized Avg. Totals: 0.79
[11]
  Average Feeding in mg per Live Termite (std. err.) days 1-8: 0.27 (0.04) mg per Live Termite
  Average Feeding in mg per Live Termite (std. err.) days 9-16: 0.22 (0.05) mg per Live Termite
  Average Feeding in mg per Live Termite (std. err.) days 17-24: 0.34 (0.02) mg per Live Termite
  Normalized Avg. Totals: 0.83
[12]
  Average Feeding in mg per Live Termite (std. err.) days 1-8: 0.25 (0.04) mg per Live Termite
  Average Feeding in mg per Live Termite (std. err.) days 9-16: 0.31 (0.05) mg per Live Termite
  Average Feeding in mg per Live Termite (std. err.) days 17-24: 0.40 (0.02) mg per Live Termite
  Normalized Avg. Totals: 0.87
[13]
  Average Feeding in mg per Live Termite (std. err.) days 1-8: 0.30 (0.01) mg per Live Termite
  Average Feeding in mg per Live Termite (std. err.) days 9-16: 0.34 (0.01) mg per Live Termite
  Average Feeding in mg per Live Termite (std. err.) days 17-24: 0.34 (0.02) mg per Live Termite
  Normalized Avg. Totals: 0.99
[14]
  Average Feeding in mg per Live Termite (std. err.) days 1-8: 0.25 (0.02) mg per Live Termite
  Average Feeding in mg per Live Termite (std. err.) days 9-16: 0.28 (0.03) mg per Live Termite
  Average Feeding in mg per Live Termite (std. err.) days 17-24: 0.29 (0.01) mg per Live Termite
  Normalized Avg. Totals: 0.74
[15]
  Average Feeding in mg per Live Termite (std. err.) days 1-8: 0.17 (0.03) mg per Live Termite
  Average Feeding in mg per Live Termite (std. err.) days 9-16: 0.21 (0.02) mg per Live Termite
  Average Feeding in mg per Live Termite (std. err.) days 17-24: 0.28 (0.02) mg per Live Termite
  Normalized Avg. Totals: 0.67
[16]
  Average Feeding in mg per Live Termite (std. err.) days 1-8: 0.21 (0.03) mg per Live Termite
  Average Feeding in mg per Live Termite (std. err.) days 9-16: 0.19 (0.07) mg per Live Termite
  Average Feeding in mg per Live Termite (std. err.) days 17-24: 0.27 (0.05) mg per Live Termite
  Normalized Avg. Totals: 0.60
Across tested concentrations 0.1-75 mM, FIGS. 7A-7C, 8A-8B
  Effect on feeding (cumulative percent of untreated controls through 24 days): did not stimulate consumption at any concentration; also recorded: little stimulatory effects at any concentration
Field colony, FIG. 13
  mortality, field colony termites: approximately 30%
Highest FMG concentration, FIG. 7D (2 colonies averaged)
  maximum mortality: approximately 20%
Highest concentration tested, FIG. 10A
  maximum mortality: 10%
Lab colony, FIG. 13
  mortality, lab colony termites: 2-3%
